According to PubChem BioAssay (NCI):
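How tested: cells in 96-well plates exposed to compound for 48 hours at five concentrations. GI50 = concentration required for 50% inhibition of growth. TGI marks complete inhibition of growth.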

Columns and labels:
Test in all cases: DTP human tumour cell line panel, 48 h
786-0 renal = tested on: 786-0 renal
A498 renal = tested on: A498 renal
A549 NSCLC = tested on: A549 NSCLC
ACHN renal = tested on: ACHN renal
BT-549 breast = tested on: BT-549 breast
CAKI-1 renal = tested on: CAKI-1 renal
CCRF-CEM leukemia = tested on: CCRF-CEM leukemia
COLO 205 colon = tested on: COLO 205 colon
DU-145 prostate = tested on: DU-145 prostate
EKVX NSCLC = tested on: EKVX NSCLC
HCC-2998 colon = tested on: HCC-2998 colon
HCT-116 colon = tested on: HCT-116 colon
HCT-15 colon = tested on: HCT-15 colon
HL-60(TB) leukemia = tested on: HL-60(TB) leukemia
HOP-62 NSCLC = tested on: HOP-62 NSCLC
HS 578T breast = tested on: HS 578T breast
HT29 colon = tested on: HT29 colon
IGROV1 ovarian = tested on: IGROV1 ovarian
K-562 leukemia = tested on: K-562 leukemia
KM12 colon = tested on: KM12 colon
LOX IMVI melanoma = tested on: LOX IMVI melanoma
M14 melanoma = tested on: M14 melanoma
MALME-3M melanoma = tested on: MALME-3M melanoma
MCF7 breast = tested on: MCF7 breast
MDA-MB-231 breast = tested on: MDA-MB-231 breast
MDA-MB-435 = tested on: MDA-MB-435
MOLT-4 leukemia = tested on: MOLT-4 leukemia
NCI-H226 lung = tested on: NCI-H226 lung
NCI-H23 lung = tested on: NCI-H23 lung
NCI-H460 lung = tested on: NCI-H460 lung
NCI-H522 lung = tested on: NCI-H522 lung
NCI/ADR-RES ovarian = tested on: NCI/ADR-RES ovarian
OVCAR-3 ovarian = tested on: OVCAR-3 ovarian
OVCAR-4 ovarian = tested on: OVCAR-4 ovarian
OVCAR-5 ovarian = tested on: OVCAR-5 ovarian
OVCAR-8 ovarian = tested on: OVCAR-8 ovarian
PC-3 prostate = tested on: PC-3 prostate
RPMI-8226 leukemia = tested on: RPMI-8226 leukemia
SF-268 CNS = tested on: SF-268 CNS
SF-295 CNS = tested on: SF-295 CNS
SF-539 CNS = tested on: SF-539 CNS
SK-MEL-2 melanoma = tested on: SK-MEL-2 melanoma
SK-MEL-28 melanoma = tested on: SK-MEL-28 melanoma
SK-MEL-5 melanoma = tested on: SK-MEL-5 melanoma
SK-OV-3 ovarian = tested on: SK-OV-3 ovarian
SN12C renal = tested on: SN12C renal
SNB-19 CNS = tested on: SNB-19 CNS
SNB-75 CNS = tested on: SNB-75 CNS
SW-620 colon = tested on: SW-620 colon
T-47D breast = tested on: T-47D breast
TK-10 renal = tested on: TK-10 renal
U251 CNS = tested on: U251 CNS
UACC-257 melanoma = tested on: UACC-257 melanoma
UACC-62 melanoma = tested on: UACC-62 melanoma
UO-31 renal = tested on: UO-31 renal

## NC(=O)c1c[nH]c2ncnc(N)c12
786-0 renal
  GI50: > 100 µM
  TGI: > 100 µM
A498 renal
  GI50: 22.9 µM
  TGI: 67.4 µM
A549 NSCLC
  GI50: > 100 µM
  TGI: > 100 µM
ACHN renal
  GI50: 44.1 µM
  TGI: > 100 µM
BT-549 breast
  GI50: 21.6 µM
  TGI: > 100 µM
CAKI-1 renal
  GI50: 2.69 µM
  TGI: 33.8 µM
CCRF-CEM leukemia
  GI50: 29.5 µM
  TGI: > 100 µM
COLO 205 colon
  GI50: 27 µM
  TGI: > 100 µM
DU-145 prostate
  GI50: 44.6 µM
  TGI: > 100 µM
EKVX NSCLC
  GI50: 39 µM
  TGI: > 100 µM
HCC-2998 colon
  GI50: 73 µM
  TGI: > 100 µM
HCT-116 colon
  GI50: 45.5 µM
  TGI: > 100 µM
HCT-15 colon
  GI50: 41.8 µM
  TGI: > 100 µM
HL-60(TB) leukemia
  GI50: 32.3 µM
  TGI: > 100 µM
HOP-62 NSCLC
  GI50: 53.3 µM
  TGI: > 100 µM
HS 578T breast
  GI50: 36.4 µM
  TGI: > 100 µM
HT29 colon
  GI50: 26.6 µM
  TGI: > 100 µM
IGROV1 ovarian
  GI50: 36.6 µM
  TGI: > 100 µM
K-562 leukemia
  GI50: 93.9 µM
  TGI: > 100 µM
KM12 colon
  GI50: 24.8 µM
  TGI: > 100 µM
LOX IMVI melanoma
  GI50: 48.6 µM
  TGI: > 100 µM
M14 melanoma
  GI50: 47.9 µM
  TGI: > 100 µM
MALME-3M melanoma
  GI50: 21.3 µM
  TGI: 71.1 µM
MCF7 breast
  GI50: 45.4 µM
  TGI: > 100 µM
MDA-MB-231 breast
  GI50: 91.5 µM
  TGI: > 100 µM
MDA-MB-435
  GI50: 26.6 µM
  TGI: > 100 µM
MOLT-4 leukemia
  GI50: 32.9 µM
  TGI: > 100 µM
NCI-H226 lung
  GI50: 67.3 µM
  TGI: > 100 µM
NCI-H23 lung
  GI50: > 100 µM
  TGI: > 100 µM
NCI-H460 lung
  GI50: 45.1 µM
  TGI: > 100 µM
NCI-H522 lung
  GI50: > 100 µM
  TGI: > 100 µM
NCI/ADR-RES ovarian
  GI50: > 100 µM
  TGI: > 100 µM
OVCAR-3 ovarian
  GI50: 23.5 µM
  TGI: > 100 µM
OVCAR-4 ovarian
  GI50: 24.1 µM
  TGI: > 100 µM
OVCAR-5 ovarian
  GI50: > 100 µM
  TGI: > 100 µM
OVCAR-8 ovarian
  GI50: 90.2 µM
  TGI: > 100 µM
PC-3 prostate
  GI50: 30.3 µM
  TGI: > 100 µM
RPMI-8226 leukemia
  GI50: 14.4 µM
  TGI: 50.7 µM
SF-268 CNS
  GI50: 39.3 µM
  TGI: > 100 µM
SF-295 CNS
  GI50: 31.1 µM
  TGI: > 100 µM
SF-539 CNS
  GI50: 44.8 µM
  TGI: > 100 µM
SK-MEL-2 melanoma
  GI50: 47.2 µM
  TGI: > 100 µM
SK-MEL-28 melanoma
  GI50: 58.8 µM
  TGI: > 100 µM
SK-MEL-5 melanoma
  GI50: 84.3 µM
  TGI: > 100 µM
SK-OV-3 ovarian
  GI50: 25.9 µM
  TGI: 83 µM
SN12C renal
  GI50: 71.6 µM
  TGI: > 100 µM
SNB-19 CNS
  GI50: > 100 µM
  TGI: > 100 µM
SNB-75 CNS
  GI50: 13.3 µM
  TGI: 59.3 µM
SW-620 colon
  GI50: 27.1 µM
  TGI: > 100 µM
T-47D breast
  GI50: 35.3 µM
  TGI: > 100 µM
TK-10 renal
  GI50: 19.6 µM
  TGI: > 100 µM
U251 CNS
  GI50: > 100 µM
  TGI: > 100 µM
UACC-257 melanoma
  GI50: > 100 µM
  TGI: > 100 µM
UACC-62 melanoma
  GI50: 95.6 µM
  TGI: > 100 µM
UO-31 renal
  GI50: 22.4 µM
  TGI: 80.9 µM
